# Laboratory results reported in ChEMBL document CHEMBL5463727, “Data for DCP probe SGK3-PROTAC1” (2023).
# Legend:
# [1] = molecular target: Serine/threonine-protein kinase OSR1 (Homo sapiens) (UniProt O95747); test: % Activity remaining of OSR1 in the Dundee kinase panel at 1.0 µM; conditions: Compound concentration 1.0 uM
# [2] = molecular target: MAP kinase-activated protein kinase 2 (Homo sapiens) (UniProt P49137); test: % Activity remaining of MAPKAP-K2 in the Dundee kinase panel at 1.0 µM; conditions: Compound concentration 1.0 uM
# [3] = molecular target: Homeodomain-interacting protein kinase 1 (Homo sapiens) (UniProt Q86Z02); test: % Activity remaining of HIPK1 in the Dundee kinase panel at 1.0 µM; conditions: Compound concentration 1.0 uM
# [4] = molecular target: Serine/threonine-protein kinase PAK 5 (Homo sapiens) (UniProt Q9P286); test: % Activity remaining of PAK5 in the Dundee kinase panel at 1.0 µM; conditions: Compound concentration 1.0 uM
# Serine/threonine-protein kinase PAK 5 (Homo sapiens), sequence (Q9P286 whole entry, looked up): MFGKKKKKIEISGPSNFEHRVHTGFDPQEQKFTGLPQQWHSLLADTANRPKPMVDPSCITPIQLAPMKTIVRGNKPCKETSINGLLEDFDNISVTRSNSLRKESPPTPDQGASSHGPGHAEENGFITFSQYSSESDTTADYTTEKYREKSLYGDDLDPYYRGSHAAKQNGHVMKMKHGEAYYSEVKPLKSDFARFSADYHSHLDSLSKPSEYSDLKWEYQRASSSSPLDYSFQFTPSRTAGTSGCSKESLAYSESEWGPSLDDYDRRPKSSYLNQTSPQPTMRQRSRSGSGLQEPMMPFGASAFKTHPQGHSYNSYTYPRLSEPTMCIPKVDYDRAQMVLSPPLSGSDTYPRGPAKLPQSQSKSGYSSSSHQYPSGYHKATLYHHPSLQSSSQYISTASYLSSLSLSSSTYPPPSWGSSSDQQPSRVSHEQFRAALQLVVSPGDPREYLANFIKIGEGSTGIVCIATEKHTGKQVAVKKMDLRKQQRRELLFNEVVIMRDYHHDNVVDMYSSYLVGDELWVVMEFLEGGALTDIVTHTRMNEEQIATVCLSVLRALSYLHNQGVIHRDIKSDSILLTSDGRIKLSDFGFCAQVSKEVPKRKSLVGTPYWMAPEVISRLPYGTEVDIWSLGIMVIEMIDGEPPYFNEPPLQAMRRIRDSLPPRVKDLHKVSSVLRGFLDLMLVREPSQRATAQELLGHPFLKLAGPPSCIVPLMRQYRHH
# [5] = molecular target: Serine/threonine-protein kinase ULK1 (Homo sapiens) (UniProt O75385); test: % Activity remaining of ULK1 in the Dundee kinase panel at 1.0 µM; conditions: Compound concentration 1.0 uM
# [6] = molecular target: Serine/threonine-protein kinase ULK2 (Homo sapiens) (UniProt Q8IYT8); test: % Activity remaining of ULK2 in the Dundee kinase panel at 1.0 µM; conditions: Compound concentration 1.0 uM
# [7] = molecular target: Serine/threonine-protein kinase Nek2 (Homo sapiens) (UniProt P51955); test: % Activity remaining of NEK2a in the Dundee kinase panel at 1.0 µM; conditions: Compound concentration 1.0 uM
# [8] = molecular target: Serine/threonine-protein kinase TBK1 (Homo sapiens) (UniProt Q9UHD2); test: % Activity remaining of TBK1 in the Dundee kinase panel at 1.0 µM; conditions: Compound concentration 1.0 uM
# [9] = molecular target: Receptor-interacting serine/threonine-protein kinase 2 (Homo sapiens) (UniProt O43353); test: % Activity remaining of RIPK2 in the Dundee kinase panel at 1.0 µM; conditions: Compound concentration 1.0 uM
# [10] = molecular target: Ribosomal protein S6 kinase beta-1 (Homo sapiens, UniProt P23443); test: RPS6KB1 degradation assay; format: functional
# [11] = molecular target: Ribosomal protein S6 kinase alpha-5 (Homo sapiens) (UniProt O75582); test: % Activity remaining of MSK1 in the Dundee kinase panel at 1.0 µM; conditions: Compound concentration 1.0 uM
# [12] = molecular target: Fibroblast growth factor receptor 1 (Homo sapiens) (UniProt P11362); test: % Activity remaining of FGF-R1 in the Dundee kinase panel at 1.0 µM; conditions: Compound concentration 1.0 uM
# [13] = molecular target: Serine/threonine-protein kinase Sgk3 (Homo sapiens) (UniProt Q96BR1); test: SGK3 degradation assay at 100 nM (48 h incubation, no effect on RPS6KB1, SGK1 and SGK2); format: functional; set-up: compound concentration 100 nM
# [14] = molecular target: TGF-beta receptor type-1 (Homo sapiens) (UniProt P36897); test: % Activity remaining of TGFBR1 in the Dundee kinase panel at 1.0 µM; conditions: Compound concentration 1.0 uM
# [15] = molecular target: T1, Serine/threonine-protein kinase Sgk1 (Homo sapiens) (UniProt O00141); test: SGK1 degradation assay; format: functional
# T1 sequence (whole entry): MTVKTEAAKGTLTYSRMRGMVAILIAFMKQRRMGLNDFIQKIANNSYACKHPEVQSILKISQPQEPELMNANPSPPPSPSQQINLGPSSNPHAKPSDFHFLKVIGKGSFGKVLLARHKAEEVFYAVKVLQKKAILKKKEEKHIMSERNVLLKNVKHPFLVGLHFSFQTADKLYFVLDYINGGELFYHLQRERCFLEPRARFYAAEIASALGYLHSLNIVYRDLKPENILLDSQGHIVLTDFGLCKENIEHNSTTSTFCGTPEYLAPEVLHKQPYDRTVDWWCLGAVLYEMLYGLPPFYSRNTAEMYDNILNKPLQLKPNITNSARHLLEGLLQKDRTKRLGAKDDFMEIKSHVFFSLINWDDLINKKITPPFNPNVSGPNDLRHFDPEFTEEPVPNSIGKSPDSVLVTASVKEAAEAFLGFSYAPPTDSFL
# [16] = molecular target: Mitogen-activated protein kinase 3 (Homo sapiens) (UniProt P27361); test: % Activity remaining of ERK1 in the Dundee kinase panel at 1.0 µM; conditions: Compound concentration 1.0 uM
# [17] = molecular target: Tyrosine-protein kinase SYK (Homo sapiens) (UniProt P43405); test: % Activity remaining of SYK in the Dundee kinase panel at 1.0 µM; conditions: Compound concentration 1.0 uM
# [18] = molecular target: Ephrin type-B receptor 1 (Homo sapiens) (UniProt P54762); test: % Activity remaining of EPH-B1 in the Dundee kinase panel at 1.0 µM; conditions: Compound concentration 1.0 uM
# [19] = molecular target: Casein kinase II subunit alpha (Homo sapiens) (UniProt P68400); test: % Activity remaining of CK2 in the Dundee kinase panel at 1.0 µM; conditions: Compound concentration 1.0 uM
# [20] = molecular target: Mitogen-activated protein kinase kinase kinase kinase 2 (Homo sapiens) (UniProt Q12851); test: % Activity remaining of GCK in the Dundee kinase panel at 1.0 µM; conditions: Compound concentration 1.0 uM
# [21] = molecular target: Phosphorylase b kinase regulatory subunit alpha, liver isoform (Homo sapiens) (UniProt P46019); test: % Activity remaining of PHK in the Dundee kinase panel at 1.0 µM; conditions: Compound concentration 1.0 uM
# Phosphorylase b kinase regulatory subunit alpha, liver isoform (Homo sapiens), sequence (P46019 whole entry, canonical isoform): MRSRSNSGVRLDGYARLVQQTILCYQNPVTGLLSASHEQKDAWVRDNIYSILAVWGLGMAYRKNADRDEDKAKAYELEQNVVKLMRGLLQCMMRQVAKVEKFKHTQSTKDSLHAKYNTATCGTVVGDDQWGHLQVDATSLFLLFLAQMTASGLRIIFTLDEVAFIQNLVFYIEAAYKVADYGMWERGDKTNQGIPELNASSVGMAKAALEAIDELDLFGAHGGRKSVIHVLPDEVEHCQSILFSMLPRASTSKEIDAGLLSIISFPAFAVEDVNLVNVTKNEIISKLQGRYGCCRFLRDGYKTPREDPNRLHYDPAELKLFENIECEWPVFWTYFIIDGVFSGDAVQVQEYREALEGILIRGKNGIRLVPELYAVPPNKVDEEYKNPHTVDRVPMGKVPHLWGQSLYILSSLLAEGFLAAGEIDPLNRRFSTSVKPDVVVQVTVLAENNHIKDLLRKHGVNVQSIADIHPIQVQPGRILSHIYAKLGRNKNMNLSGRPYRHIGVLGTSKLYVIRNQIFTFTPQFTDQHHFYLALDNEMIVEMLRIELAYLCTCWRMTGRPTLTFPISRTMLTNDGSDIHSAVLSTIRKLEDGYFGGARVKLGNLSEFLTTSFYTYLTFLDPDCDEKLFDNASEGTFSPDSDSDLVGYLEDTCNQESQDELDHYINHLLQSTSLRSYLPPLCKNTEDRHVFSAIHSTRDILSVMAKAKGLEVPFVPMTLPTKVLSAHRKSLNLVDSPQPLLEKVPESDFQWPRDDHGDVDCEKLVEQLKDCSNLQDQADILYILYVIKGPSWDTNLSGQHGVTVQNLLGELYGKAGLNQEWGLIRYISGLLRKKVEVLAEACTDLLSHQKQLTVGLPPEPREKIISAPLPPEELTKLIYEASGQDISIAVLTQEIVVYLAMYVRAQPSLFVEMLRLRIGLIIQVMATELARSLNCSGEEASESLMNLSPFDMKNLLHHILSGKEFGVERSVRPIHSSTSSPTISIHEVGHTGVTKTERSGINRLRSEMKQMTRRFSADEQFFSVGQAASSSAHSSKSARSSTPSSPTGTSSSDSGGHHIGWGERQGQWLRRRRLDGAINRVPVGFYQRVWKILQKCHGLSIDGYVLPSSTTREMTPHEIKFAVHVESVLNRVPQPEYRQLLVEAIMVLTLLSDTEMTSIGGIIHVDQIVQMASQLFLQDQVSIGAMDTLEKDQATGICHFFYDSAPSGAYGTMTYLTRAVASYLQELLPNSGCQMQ
# [22] = molecular target: Ephrin type-B receptor 2 (Homo sapiens) (UniProt P29323); test: % Activity remaining of EPH-B2 in the Dundee kinase panel at 1.0 µM; conditions: Compound concentration 1.0 uM
# [23] = molecular target: High affinity nerve growth factor receptor (Homo sapiens) (UniProt P04629); test: % Activity remaining of TrkA in the Dundee kinase panel at 1.0 µM; conditions: Compound concentration 1.0 uM
# [24] = molecular target: Cyclin-dependent kinase 2/cyclin A (Homo sapiens) (UniProt P24941+P20248+P78396); test: % Activity remaining of CDK2-Cyclin A in the Dundee kinase panel at 1.0 µM; format: protein-complex assay; conditions: Compound concentration 1.0 uM
# [25] = molecular target: Ribosomal protein S6 kinase alpha-3 (Homo sapiens) (UniProt P51812); test: % Activity remaining of RSK2 in the Dundee kinase panel at 1.0 µM; conditions: Compound concentration 1.0 uM
# [26] = molecular target: MAP/microtubule affinity-regulating kinase 3 (Homo sapiens) (UniProt P27448); test: % Activity remaining of MARK3 in the Dundee kinase panel at 1.0 µM; conditions: Compound concentration 1.0 uM
# [27] = molecular target: Aurora kinase B (Homo sapiens) (UniProt Q96GD4); test: % Activity remaining of Aurora B in the Dundee kinase panel at 1.0 µM; conditions: Compound concentration 1.0 uM
# [28] = molecular target: Serine/threonine-protein kinase MARK2 (Homo sapiens) (UniProt Q7KZI7); test: % Activity remaining of MARK2 in the Dundee kinase panel at 1.0 µM; conditions: Compound concentration 1.0 uM
# [29] = molecular target: Rho-associated protein kinase 2 (Homo sapiens) (UniProt O75116); test: % Activity remaining of ROCK 2 in the Dundee kinase panel at 1.0 µM; conditions: Compound concentration 1.0 uM
# Rho-associated protein kinase 2 (Homo sapiens), sequence (O75116 whole entry, looked up): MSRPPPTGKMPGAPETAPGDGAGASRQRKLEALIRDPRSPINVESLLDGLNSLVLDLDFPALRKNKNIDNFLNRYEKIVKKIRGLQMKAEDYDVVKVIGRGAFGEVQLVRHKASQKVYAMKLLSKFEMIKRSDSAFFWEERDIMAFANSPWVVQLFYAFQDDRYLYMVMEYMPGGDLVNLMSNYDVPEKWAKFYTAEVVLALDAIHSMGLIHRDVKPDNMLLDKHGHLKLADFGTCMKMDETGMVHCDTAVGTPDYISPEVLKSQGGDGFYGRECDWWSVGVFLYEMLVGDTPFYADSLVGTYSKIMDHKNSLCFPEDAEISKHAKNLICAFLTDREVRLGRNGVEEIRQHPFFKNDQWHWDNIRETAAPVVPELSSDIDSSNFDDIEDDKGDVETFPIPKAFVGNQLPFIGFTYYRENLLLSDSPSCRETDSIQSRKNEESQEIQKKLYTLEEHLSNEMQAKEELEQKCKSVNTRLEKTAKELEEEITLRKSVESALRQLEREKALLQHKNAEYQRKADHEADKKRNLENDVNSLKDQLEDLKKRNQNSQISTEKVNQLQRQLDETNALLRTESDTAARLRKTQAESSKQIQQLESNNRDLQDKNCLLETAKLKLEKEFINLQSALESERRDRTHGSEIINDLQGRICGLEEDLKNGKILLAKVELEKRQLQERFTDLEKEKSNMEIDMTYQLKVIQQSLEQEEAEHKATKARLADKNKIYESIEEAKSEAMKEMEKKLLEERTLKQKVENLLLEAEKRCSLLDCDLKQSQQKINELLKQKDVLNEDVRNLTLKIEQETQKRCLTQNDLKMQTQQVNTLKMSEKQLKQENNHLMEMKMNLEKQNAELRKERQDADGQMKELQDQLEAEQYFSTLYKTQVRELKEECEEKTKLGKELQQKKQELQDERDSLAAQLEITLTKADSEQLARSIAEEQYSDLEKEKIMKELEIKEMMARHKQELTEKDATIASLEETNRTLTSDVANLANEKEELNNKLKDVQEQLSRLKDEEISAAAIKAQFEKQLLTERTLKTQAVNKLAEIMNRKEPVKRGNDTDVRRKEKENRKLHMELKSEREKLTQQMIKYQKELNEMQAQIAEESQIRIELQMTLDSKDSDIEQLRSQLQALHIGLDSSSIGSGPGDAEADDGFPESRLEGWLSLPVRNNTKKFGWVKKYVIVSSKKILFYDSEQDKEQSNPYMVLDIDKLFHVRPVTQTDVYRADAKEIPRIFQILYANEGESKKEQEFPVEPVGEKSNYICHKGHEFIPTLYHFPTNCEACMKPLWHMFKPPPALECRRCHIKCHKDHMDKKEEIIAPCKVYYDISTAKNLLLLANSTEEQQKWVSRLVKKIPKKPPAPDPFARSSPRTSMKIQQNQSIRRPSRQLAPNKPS
# [30] = molecular target: Serine/threonine-protein kinase 3 (Homo sapiens) (UniProt Q13188); test: % Activity remaining of MST2 in the Dundee kinase panel at 1.0 µM; conditions: Compound concentration 1.0 uM
# [31] = molecular target: Mitogen-activated protein kinase kinase kinase 9 (Homo sapiens) (UniProt P80192); test: % Activity remaining of MLK1 in the Dundee kinase panel at 1.0 µM; conditions: Compound concentration 1.0 uM
# Mitogen-activated protein kinase kinase kinase 9 (Homo sapiens), sequence (P80192 whole entry, looked up): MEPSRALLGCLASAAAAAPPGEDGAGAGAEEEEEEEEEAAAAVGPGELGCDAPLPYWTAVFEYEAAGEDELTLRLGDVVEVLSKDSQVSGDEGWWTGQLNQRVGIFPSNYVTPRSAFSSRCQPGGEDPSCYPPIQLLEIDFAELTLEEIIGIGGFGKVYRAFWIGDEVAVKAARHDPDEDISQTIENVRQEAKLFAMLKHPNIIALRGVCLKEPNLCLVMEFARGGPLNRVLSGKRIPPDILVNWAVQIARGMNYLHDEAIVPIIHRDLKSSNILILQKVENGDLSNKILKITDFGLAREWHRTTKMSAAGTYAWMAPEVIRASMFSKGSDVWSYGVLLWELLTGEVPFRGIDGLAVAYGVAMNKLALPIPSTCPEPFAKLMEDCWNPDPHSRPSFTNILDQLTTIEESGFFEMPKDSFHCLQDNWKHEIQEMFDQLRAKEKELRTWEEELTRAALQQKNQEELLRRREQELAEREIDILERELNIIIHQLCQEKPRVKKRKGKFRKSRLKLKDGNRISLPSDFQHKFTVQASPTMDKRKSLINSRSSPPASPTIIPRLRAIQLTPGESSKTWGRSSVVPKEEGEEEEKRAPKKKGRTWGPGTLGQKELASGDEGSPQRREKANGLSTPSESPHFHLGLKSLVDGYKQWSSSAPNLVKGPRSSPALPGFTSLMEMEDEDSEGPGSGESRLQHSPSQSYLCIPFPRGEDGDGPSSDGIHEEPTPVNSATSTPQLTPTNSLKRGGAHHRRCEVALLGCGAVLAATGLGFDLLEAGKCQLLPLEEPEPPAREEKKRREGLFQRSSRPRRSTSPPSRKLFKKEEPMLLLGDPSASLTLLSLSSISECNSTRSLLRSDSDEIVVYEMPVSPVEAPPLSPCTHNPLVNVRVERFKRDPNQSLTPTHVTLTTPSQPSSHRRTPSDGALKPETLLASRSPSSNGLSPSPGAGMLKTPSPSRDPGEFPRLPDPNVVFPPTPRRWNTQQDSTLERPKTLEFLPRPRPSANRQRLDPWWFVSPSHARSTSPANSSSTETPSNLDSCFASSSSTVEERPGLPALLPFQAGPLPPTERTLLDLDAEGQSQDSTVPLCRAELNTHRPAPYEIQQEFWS
# [32] = molecular target: NUAK family SNF1-like kinase 1 (Homo sapiens) (UniProt O60285); test: % Activity remaining of NUAK1 in the Dundee kinase panel at 1.0 µM; conditions: Compound concentration 1.0 uM
# [33] = molecular target: Ribosomal protein S6 kinase alpha-1 (Homo sapiens) (UniProt Q15418); test: % Activity remaining of RSK1 in the Dundee kinase panel at 1.0 µM; conditions: Compound concentration 1.0 uM
# [34] = molecular target: Protein kinase C alpha type (Homo sapiens) (UniProt P17252); test: % Activity remaining of PKC alpha in the Dundee kinase panel at 1.0 µM; conditions: Compound concentration 1.0 uM
# Serine/threonine-protein kinase OSR1 (Homo sapiens), sequence (O95747 2-527 limits assumed): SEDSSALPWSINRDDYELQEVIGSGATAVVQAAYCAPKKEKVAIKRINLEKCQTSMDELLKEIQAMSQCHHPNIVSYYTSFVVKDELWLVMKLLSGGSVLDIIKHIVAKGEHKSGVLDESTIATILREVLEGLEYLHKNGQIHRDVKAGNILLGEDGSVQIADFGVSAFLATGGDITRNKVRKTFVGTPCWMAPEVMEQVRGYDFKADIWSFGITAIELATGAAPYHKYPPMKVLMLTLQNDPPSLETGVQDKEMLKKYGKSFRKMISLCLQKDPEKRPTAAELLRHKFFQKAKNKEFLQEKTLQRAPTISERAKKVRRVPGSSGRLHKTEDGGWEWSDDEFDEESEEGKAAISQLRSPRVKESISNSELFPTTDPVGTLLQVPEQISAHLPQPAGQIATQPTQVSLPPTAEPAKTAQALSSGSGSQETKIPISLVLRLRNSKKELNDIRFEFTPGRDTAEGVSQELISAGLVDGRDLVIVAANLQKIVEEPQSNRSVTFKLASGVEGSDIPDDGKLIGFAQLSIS
SMILES,% Activity remaining [1] [%],% Activity remaining [2] [%],% Activity remaining [3] [%],% Activity remaining [4] [%],% Activity remaining [5] [%],% Activity remaining [6] [%],% Activity remaining [7] [%],% Activity remaining [8] [%],% Activity remaining [9] [%],% Activity remaining [11] [%],% Activity remaining [12] [%],Degradation [13] [%],% Activity remaining [14] [%],% Activity remaining [16] [%],% Activity remaining [17] [%],% Activity remaining [18] [%],% Activity remaining [19] [%],% Activity remaining [20] [%],% Activity remaining [21] [%],% Activity remaining [22] [%],other results
Cc1ccc(F)c(S(=O)(=O)Nc2ccc(-c3nc(OC[C@H]4CN(CCCCCCOCCOCCOCC(=O)N[C@H](C(=O)N5C[C@H](O)C[C@H]5C(=O)NCc5ccc(-c6scnc6C)cc5)C(C)(C)C)CCO4)c4cn[nH]c4n3)cc2)c1,103,85.8,135,87.6,116,103,162,93.4,88.4,49.6,108,65,124,103,116,99.9,90.2,99,113,93.9,Degradation [10]: 0%; Degradation [15]: 0%; % Activity remaining [23]: 112%; % Activity remaining [24]: 101%; % Activity remaining [25]: 120%; % Activity remaining [26]: 98.4%; % Activity remaining [27]: 92.5%; % Activity remaining [28]: 102%; % Activity remaining [29]: 113%; % Activity remaining [30]: 112%; % Activity remaining [31]: 81.9%; % Activity remaining [32]: 98%; % Activity remaining [33]: 83.2%; % Activity remaining [34]: 121%
Cc1ccc(F)c(S(=O)(=O)Nc2ccc(-c3nc(OC[C@H]4CN(CCCCCCOCCOCCOCC(=O)N[C@H](C(=O)N5C[C@@H](O)C[C@H]5C(=O)NCc5ccc(-c6scnc6C)cc5)C(C)(C)C)CCO4)c4cn[nH]c4n3)cc2)c1,118,91.7,126,105,112,117,139,111,94.2,56.5,106,0,114,101,103,108,96.4,96.3,122,97.4,% Activity remaining [23]: 102%; % Activity remaining [24]: 103%; % Activity remaining [25]: 109%; % Activity remaining [26]: 109%; % Activity remaining [27]: 94.7%; % Activity remaining [28]: 112%; % Activity remaining [29]: 119%; % Activity remaining [30]: 100%; % Activity remaining [31]: 93.9%; % Activity remaining [32]: 90%; % Activity remaining [33]: 90.2%; % Activity remaining [34]: 118%
